According to US7473679B2, “Treatments employing neuronal exocytosis-inhibiting peptides” (Lipotec, S.A., priority 1999, dated 2009):

These substances were tested on chromaffin cells permeabilized with digitonin (assay: Inhibition of the release of catecholamines induced by calcium in permeabilized chromaffin cells). Conditions: peptide at 1 mM, stimulated with calcium.
Type: cell-based, bovine
Method: The neuronal-exocytosis (neurosecretion) inhibiting capabilities of the peptides of the invention became evident through a test that evaluates the strength of said peptides in inhibiting the release of catecholamines induced by calcium in chromaffin cells permeabilized with a detergent [see Example 1.2.1]. Briefly, the chromaffin cell cultures are incubated with epinephrine and norepinephrine containing tritium, are permeabilized with digitonin, and stimulated with calcium, and the amount of radioactivity released by the cells to the extracellular medium, which is a reflection of the exocytosis of said tritium-containing catecholamines, is measured.
This test was performed to verify the neuronal exocytosis-inhibiting capabilities of the peptides synthesized in Example 1.1. In this test, the strength of said peptides is evaluated in inhibiting the release of catecholamines (norepinephrine and epinephrine) induced by calcium in chromaffin cells (obtained from suprarenal bovine glands) permeabilized with the detergent digitonin, in accordance with the method described by Gutiérrez el al. (1995 and 1997).
Briefly, the chromaffin cell cultures are incubated with [^3H]-epinephrine and [^3H]-norepinephrine, are permeabilized with 20 μM digitonin, and stimulated with calcium (10 μM), in the presence of the peptides to be tested (separate or mixed), and the amount of radioactivity released by the cells to the extracellular medium, which is a reflection of the exocytosis of [^3H]-epinephrine and [^3H]-norepinephrine, is measured.
With “SEQ. ID. No. 2: hexapeptide from the amino end of protein SNAP-25 (EEMQRR)” the “inhibition of the release of catecholamines (epinephrine and norepinephrine)” value (“inhibition” for short) was “approximately 20%”. “SEQ. ID. No. 3: peptide with 13 amino acids from the amino end of protein SNAP-25 (ELEEMQRRADQLA)” was tested, and the “inhibition” value was “approximately 35%”. “SEQ. ID. No. 5: peptide from the carboxyl end of SNAP-25 [SEQ. ID. No. 4], (COOH) peptide (RIMEKADSNKTRIDEANQ)” was tested, and the “inhibition” value was “approximately 40%”. With “SEQ. ID. No. 6: peptide from the carboxyl end of SNAP-25 [SEQ. ID. No. 4], (COOH) peptide (ADSNKTRIDEANQRATKML)” the “inhibition” value was “approximately 40%”.
